Tests used:
11β-HSD2 = biological target: T1, 11β-HSD2 (Homo sapiens, UniProt P80365); assay: Inhibition of 11β-HSD2-dependent oxidation of cortisol in HEK-293 cell lysates; format: biochemical; conditions: for IC50: human enzyme, 50 nM cortisol, 10 min, 37°C, read-out: IC50, 11β-HSD2-dependent conversion of cortisol to cortisone
T1 construct: expressed in transfected cells
T1 sequence (P80365 1-405): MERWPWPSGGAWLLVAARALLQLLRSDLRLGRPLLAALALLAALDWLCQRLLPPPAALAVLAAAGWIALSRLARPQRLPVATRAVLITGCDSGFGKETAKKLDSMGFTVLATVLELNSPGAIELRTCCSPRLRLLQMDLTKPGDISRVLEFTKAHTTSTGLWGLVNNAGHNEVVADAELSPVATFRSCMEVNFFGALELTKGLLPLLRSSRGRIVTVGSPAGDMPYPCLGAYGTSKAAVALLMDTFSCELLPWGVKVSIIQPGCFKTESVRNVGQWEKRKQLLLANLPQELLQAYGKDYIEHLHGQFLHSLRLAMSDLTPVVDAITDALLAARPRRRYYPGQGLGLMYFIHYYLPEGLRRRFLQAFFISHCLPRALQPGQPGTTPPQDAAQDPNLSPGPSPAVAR
Description: 11β-HSD1 and 11β-HSD2 enzyme activities were assessed in lysates of HEK-293 cells stably expressing the respective enzyme as reported earlier ([40]). Briefly, 11β-HSD1-dependent oxoreductase activity was determined by the incubation of lysates with 200 nM of radiolabeled cortisone, 500 μM of NADPH, and the test substance or vehicle for 10 min at 37°C. 11β-HSD2-dependent oxidation of cortisol was measured instead by the addition of 50 nM of radiolabeled cortisol and 500 μM of NAD^+. The enzymatic reaction was stopped by introducing an excess amount of unlabeled cortisone and cortisol (1:1, 2 mM unlabeled each, in methanol). Cortisone and cortisol were separated using TLC and a chloroform and methanol (9:1, v/v) mixture. The bands were detected under UV light, scraped off the plate, and metabolism of the radiolabeled substrate was then evaluated by scintillation counting and the substrate conversion determined and compared with the control sample. Data (mean ± SD) were normalized to the control (DMSO) sample and obtained from at least three independent experiments.

mouse 11β-hsd2 = biological target: T2, mouse 11β-hsd2 (Mus musculus, UniProt P51661); assay: 11β-hsd2 activity in mouse kidney homogenates (corticosterone to 11-dehydrocorticosterone); format: biochemical
T2 construct: The determination of 11β-hsd2 activity in mouse kidney homogenates; from tissue; host or cells: kidney of adult male C57BL6 mice
T2 sequence (P51661 1-386): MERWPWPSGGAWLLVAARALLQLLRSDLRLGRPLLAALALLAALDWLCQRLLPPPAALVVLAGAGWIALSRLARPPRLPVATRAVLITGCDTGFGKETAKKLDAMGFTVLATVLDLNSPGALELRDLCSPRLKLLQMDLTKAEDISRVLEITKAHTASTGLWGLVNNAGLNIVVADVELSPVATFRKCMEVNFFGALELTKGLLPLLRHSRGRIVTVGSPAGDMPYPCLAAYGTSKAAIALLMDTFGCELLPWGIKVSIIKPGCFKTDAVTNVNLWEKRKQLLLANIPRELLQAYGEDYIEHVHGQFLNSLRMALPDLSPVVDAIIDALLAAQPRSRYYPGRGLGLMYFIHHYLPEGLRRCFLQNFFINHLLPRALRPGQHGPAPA
Description: The determination of 11β-hsd2 activity in mouse kidney homogenates was conducted as described earlier ([41]). Briefly, for homogenate preparation, kidneys from adult male mice (C57BL6) were snap-frozen and sonicated in homogenization buffer [250 mM sucrose, 10 mM HEPES (pH 7.4); 900 μl for 100 mg of tissue]. Then, the homogenate was centrifuged (2,000 g, 4°C for 10 min) and the total protein concentration determined. The enzymatic reaction was assessed using 0.075 mg/ml total protein of the kidney homogenate in incubation buffer [300 mM NaCl, 20 mM Tris/HCl, 1 mM EDTA, 10% glycerol (pH 7.7)], different concentrations of oxysterols, 50 nM of corticosterone (containing 50 nCi [1,2,6,7-^3H] corticosterone), and 500 μM NAD^+ at 37°C for 20 min. Corticosterone and 11-dehydrocorticosterone were separated using TLC. Substrate conversion was determined by scintillation counting. Data (mean ± SD) were normalized to vehicle control (DMSO) and obtained from at least three independent experiments.

RORγ = biological target: T3, RORγ (Homo sapiens, UniProt P51449); assay: RORγ reporter gene assay in doxycycline-inducible RORγ CHO Tet-on cells transfected with 11β-HSD1/H6PDH, 11β-HSD2 or pcDNA3; format: cell-based; parameters: only weakly by 7k27OHC when full-length receptors are considered [([31]), present study]; expressed in transfected cells
T3 sequence (P51449 1-518): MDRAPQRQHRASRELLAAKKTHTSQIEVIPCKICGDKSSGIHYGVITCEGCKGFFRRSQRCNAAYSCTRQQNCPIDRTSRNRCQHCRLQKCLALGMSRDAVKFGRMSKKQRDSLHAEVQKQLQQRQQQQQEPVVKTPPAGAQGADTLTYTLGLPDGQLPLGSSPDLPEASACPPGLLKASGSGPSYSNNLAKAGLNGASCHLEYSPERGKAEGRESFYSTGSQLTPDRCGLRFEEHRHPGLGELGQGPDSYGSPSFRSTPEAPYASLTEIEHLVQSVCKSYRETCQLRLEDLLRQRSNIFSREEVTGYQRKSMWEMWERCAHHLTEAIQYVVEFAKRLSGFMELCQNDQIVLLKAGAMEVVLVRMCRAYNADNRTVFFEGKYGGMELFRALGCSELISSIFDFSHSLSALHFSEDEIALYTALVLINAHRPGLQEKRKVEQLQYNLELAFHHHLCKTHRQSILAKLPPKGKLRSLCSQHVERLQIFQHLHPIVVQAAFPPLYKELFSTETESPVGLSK
Description: Doxycycline-inducible RORγ CHO Tet-on cells were transfected with 11β-HSD1/H6PDH, 11β-HSD2. or pcDNA3 using the electroporation method according to the manufacturer’s protocol (Neon™ transfection system; Invitrogen). Briefly, the cells […]). Three electric pulses of 1,620 V and 10 ms were delivered to the cells using a 100 μl gold tip. Then, the cells (20,000 cells per well) were seeded in 96-well plates using culture medium without antibiotics and incubated for 16 h. The medium was replaced with medium containing charcoal-dextran stripped FBS for 1.5 h before treating the cells with different concentrations of oxysterols. After 6 h, 1.25 μM of the inverse agonist SR2211 was added to the treatment for another 2 h. To induce ROR expression, the cells were additionally subjected to 1 μM doxycycline for a further 16 h. The cells were lysed in 20 μl Tropix lysis solution supplemented with 0.5 mM dithiothreitol. RORγ-mediated activation of the luciferase reporter was measured in 10 μl lysate by adding 100 μl of D-luciferin-firefly substrate solution. Data (mean ± SD) were obtained from at least three independent experiments.

[1] = 11β-HSD2 expressing RORγ Tet-on cells

Inhibition of human 11β-HSD2 (in words) (11β-HSD2; not shown) | Structure (SMILES) | IC50 (11β-HSD2) [nM] | IC50 (mouse 11β-hsd2; 50 nM corticosterone, 20 min, 37°C, read-out: IC50, mouse 11β-hsd2 activity (corticosterone to 11-DHC)) [nM] | Reversal of the inhibitory effect of SR2211 on RORγ reporter (in words) (RORγ; [1]) | Reversal of the inhibitory effect of SR2211 on RORγ reporter (in words) (RORγ; coexpression of RORγ with 11β-HSD1) | Inhibition of mouse 11β-hsd2 activity (in words) (mouse 11β-hsd2) | Effect on RORγ reporter (in words) (RORγ; only control plasmid expressed, data not shown)
– | CC(CO)CCC[C@@H](C)[C@H]1CC[C@H]2[C@@H]3C(=O)C=C4C[C@@H](O)CC[C@]4(C)[C@H]3CC[C@]12C (stereo partly shown) [7k27OHC, 7-keto,27-hydroxycholesterol] | 15 ± 1 | 1650 ± 400 | weak response | capable of reversing the inhibitory effect of the RORγ antagonist, SR2211, in the same manner as 7β27OHC | – | –
did not inhibit | C[C@@H](CO)CCC[C@@H](C)[C@H]1CC[C@H]2[C@@H]3[C@H](O)C=C4C[C@@H](O)CC[C@]4(C)[C@H]3CC[C@]12C [7α27OHC] | – | – | – | – | Neither 7β27OHC nor 7α27OHC inhibited | same weak concentration-dependent effect as 7k27OHC
– | CC(CO)CCC[C@@H](C)[C@H]1CC[C@H]2[C@@H]3[C@@H](O)C=C4C[C@@H](O)CC[C@]4(C)[C@H]3CC[C@]12C (stereo partly drawn) [7β27OHC, 7β,27-dihydroxycholesterol] | 11 ± 2 | – | could not restore RORγ activity | – | Neither 7β27OHC nor 7α27OHC inhibited | –

Reference: publication PMC6718442, “11β-Hydroxysteroid dehydrogenases control access of 7β,27-dihydroxycholesterol to retinoid-related orphan receptor γ” (Journal of Lipid Research, 2019)
